# Reference: patent US20240287136A1, “PHARMACEUTICAL COMPOSITION AND THE USE THEREOF IN THE TREATMENT OF AUTOIMMUNE DISEASES” (Singapore Health Services Pte. Ltd., priority 2016, published 2024)
# Experiments:
# [1] = system: T cells cocultured with mDC; assay: Gene expression of regulatory molecules in T cells co-cultured with mDC+HCQ; type: cell-based, human
# Protocol: (§1) FIG. 6. […] CD4+ sorted cells were co-cultured with the mDC-treated groups for an additional 24 hours. The expression of PD-1 (MFI: 187 vs 212, T(x)=26.4, p<0.01) and intracellular PD-1 (MFI: 46 vs 222, T(x) 161, p<0.01) was increased in T cells when co-cultured with HCQ-treated mDC. h.
# Data are expressed as 2(−dCT)×100 of GAPDH.
# (§2) MFI=Mean Fluorescence Index. […] MFI=Mean Fluorescence Index Sorted CD4+ T cells were then co-cultured with mDCs for an additional 24 hours.
# [2] = system: Monocyte-derived, LPS-induced dendritic cells (mDC); assay: Marker expression on monocyte-derived, LPS-induced dendritic cells treated in vitro with HCQ; type: cell-based, human
# Protocol: FIG. 6. […] CD4+ sorted cells were co-cultured with the mDC-treated groups for an additional 24 hours.
# as §2
# [3] = system: patients with early rheumatoid arthritis; assay: Phase II trial of mucosal tolerization to SEQ ID NO. 1: clinical outcome; type: in vivo, human
# Protocol: The model employed here is based on the hypothesis that immune tolerization to a T-cell epitope, such as SEQ ID NO. 1 that may be a contributor of inflammation in patients with rheumatoid arthritis, may lead to detectable clinical improvement. A total of 96 patients with early rheumatoid arthritis, who were not allowed on Methotrexate or biologics, were tested with mucosal tolerization to SEQ ID NO. 1. Patients are defined as “responders” if they meet the response criteria at any time during the study. […] SEQ ID NO. […]
# CD4+ sorted cells = assay: PD-1 / PDL1 expression on CD4+ T cells co-cultured with HCQ-treated mDC; type: cell-based, human
# Protocol: as §1, §2
# Monocyte-derived dendritic cells (DCs) were isolated from healthy controls and activated with lipopolysaccharide (LPS). […] HCQ-treated and untreated mature DCs were then co-cultured with CD4+ T cells to assess the potential of these DCs in activating the T cells.
structure (smiles),measurement,setting,value
"CCN(CCO)CCCC(C)Nc1ccnc2cc(Cl)ccc12 (stereo not shown) [HCQ, hydroxychloroquine]",Gene expression of CTLA-4 in T cells,[1]; without HCQ 1.74,15.06 2(−dCT)×100 of GAPDH
same,Gene expression of FoxP3 in T cells,[1]; without HCQ 3.06,12.27 2(−dCT)×100 of GAPDH
same,Gene expression of IL-10 in T cells,[1]; without HCQ 3.71,7.57 2(−dCT)×100 of GAPDH
same,Gene expression of TGF β in T cells,[1]; without HCQ 15.00,23.85 2(−dCT)×100 of GAPDH
same,expression of HLA-DR on mDC,[2]; control 100,20.8 MFI
same,expression of CD200 on mDC,[2]; control 264,409 MFI
same,expression of IL-10 in mDC,[2]; control 453,1045 MFI
same,expression of CD86 on mDC,[2]; control 37983,34170 MFI
same,effect on the therapeutic activity of SEQ ID NO: 1,[3]; HCQ use preceding SEQ ID NO: 1 administration,synergistic effect
same,clinical control,"[3]; post hoc evaluation of Phase II trial, preceding use of HCQ in combination with SEQ ID NO. 1 treatment",favored clinical control
same,expression of intracellular PD-1 in T cells,"CD4+ sorted cells; CD4+ cells co-cultured 24 hours with HCQ-treated mDC, control 46",222 MFI
same,expression of PD-1 in T cells,"CD4+ sorted cells; CD4+ cells co-cultured 24 hours with HCQ-treated mDC, control 187",212 MFI
same,expression of PDL1 on CD4+ T cells,CD4+ sorted cells; cultured in the presence of HCQ-treated DCs (FIG. 12B),expressed more
